According to patent US6924305B2, “Diazocine derivatives and their use as tryptase inhibitors” (Altana Pharma AG, priority 2001, dated 2005):

Target: human tryptase
Assay: Inhibition of human tryptase (apparent dissociation constant, chromogenic substrate tos-Gly-Pro-arg-pNA)
Type: biochemical
Conditions: pKiapp = -log Kiapp (mol/l), in presence of substrate, heparin 0.1-50 μg/ml, equilibrium conditions
Excerpt: The documented pathophysiological effects of mast cell tryptase are caused directly by the enzymatic activity of the protease. Accordingly, they are reduced or blocked by inhibitors which inhibit the enzymatic activity of the tryptase. A suitable measure for the affinity of a reversible inhibitor to the target protease is the equilibrium dissociation constant K1 of the enzyme-inhibitor complex. This K1 value can be determined via the effect of the inhibitor on the tryptase-induced cleavage of a chromogenic peptide-p-nitroanilide substrate or a fluorogenic peptide-aminomethylcoumarin substrate.
The dissociation constants for the tryptase-inhibitor complexes are determined under equilibrium conditions in accordance with the general proposals of Bieth (Bieth J G, Pathophysiological Interpretation of kinetic constants of protease inhibitors, Bull. Europ. Physiopath. Resp. 16:183-195, 1980) and the methods of Sommerhoff et al. (Sommerhoff C P et al., A Kazal-type inhibitor of human mast cell tryptase: Isolation from the medical leech Hirudo medicinalis, characterization, and sequence analysis, Biol. Chem. Hoppe-Seyler 375: 685-694, 1994).
Human tryptase is isolated from lung tissue or prepared recombinantly; the specific activity of the protease, determined by titration, is usually greater than 85% of the theoretical value. In the presence of heparin (0.1-50 μg/ml) for stabilizing the protease, constant amounts of the tryptase are incubated with increasing amounts of the inhibitors. After an equilibrium between the reaction partners has formed, the remaining enzyme activity after addition of the peptide-p-nitroanilide substrate tos-Gly-Pro-arg-pNA is determined and the cleavage of the latter is monitored at 405 nm for 3 min. Alternatively, the remaining enzymatic activity can also be determined using fluorogenic substrates. The apparent dissociation constants Klapp (i.e. in the presence of substrate) are subsequently determined by adapting the enzyme rates to the general equation for reversible inhibitors (Morrison J F, Kinetics of the reversible inhibition of enzyme-catalyzed reactions by tight-binding inhibitors, Biochim. Biophys. Acta 185, 269-286, 1969) using non-linear regression: V1/V0=1−{Et+It+Klapp−(Et+ItKlapp)^2−4EtIt]^1/2}/2Et V1 and V0 are the rates in the presence and absence, respectively, of the inhibitor, and Et and It are the tryptase and inhibitor concentrations, respectively.
The apparent dissociation constants determined for the compounds according to the invention are shown in Table A below, where the numbers of the compounds correspond to the numbers of the compounds in the examples [pKlapp=−logKlapp (mol/l)].

| Compound | pKiapp |
| --- | --- |
| COC(=O)C1CC(NC(=O)CN2CCC(=O)N(CC(=O)NC3CC(C(=O)OC)N(C(=O)CCc4ccc(CN)cc4)C3)CCC2=O)CN1C(=O)CCc1ccc(CN)cc1.Cl.Cl (centres unmarked) [Compound 1, 1,5-Bis{N,N′-[1-(3-(4-aminomethylphenyl)propionyl)-2-methoxycarbonylpyrrolidin-4-yl]aminocarbonylmethyl}perhydro-1,5-diazocine-2,6-dione dihydrochloride] | 9.05 |
| Cl.Cl.NCc1ccc(CCC(=O)N2CC(NC(=O)CN3CCC(=O)N(CC(=O)NC4CC(C(=O)OCc5ccccc5)N(C(=O)CCc5ccc(CN)cc5)C4)CCC3=O)CC2C(=O)OCc2ccccc2)cc1 (centres unmarked) [Compound 2, 1,5-Bis{N,N′-[1-(3-(4-aminomethylphenyl)propionyl)-2-benzyloxycarbonylpyrrolidin-4-yl]aminocarbonylmethyl}perhydro-1,5-diazocine-2,6-dione dihydrochloride] | 9.22 |
| Cl.Cl.NCc1ccc(CCC(=O)N2CC(NC(=O)CN3CCC(=O)N(CC(=O)NC4CC(C(=O)O)N(C(=O)CCc5ccc(CN)cc5)C4)CCC3=O)CC2C(=O)O)cc1 (centres unmarked) [Compound 3, 1,5-Bis{N,N′-[1-(3-(4-aminomethylphenyl)proplonyl)-2-carboxypyrrlidin-4-yl]-aminocarbonylmethyl}perhydro-1,5-diazocine-2,6-dine dihydrochloride] | 7.43 |

Now from value to compound:

| pKiapp | Compound |
| --- | --- |
| 9.66 | Cl.Cl.NCc1ccc(CCC(=O)N2CC(NC(=O)CN3CCC(=O)N(CC(=O)NC4CC(C(=O)NC5CC5)N(C(=O)CCc5ccc(CN)cc5)C4)CCC3=O)CC2C(=O)NC2CC2)cc1 (centres unmarked) [Compound 4, 1,5-Bis{N,N′-[1-(3-(4-aminomethylphenyl)propionyl)-2-cyclopropylaminocarbonyl-pyrrolidin-4-yl]aminocarbonylmethyl}perhydro-1,5-diazocine-2,6-dione dihydrochloride] |
| 8.80 | Cl.Cl.NCc1ccc(CCC(=O)N2CC(NC(=O)CN3CCC(=O)N(CC(=O)NC4CC(C(N)=O)N(C(=O)CCc5ccc(CN)cc5)C4)CCC3=O)CC2C(N)=O)cc1 (centres unmarked) [Compound 5, 1,5-Bis{N,N′-[1-(3-(4-aminomethylphenyl)proplonyl)-2-aminocarbonylpyrrolidin-4-yl]-aminocarbonylmethyl}perhydro-1,5-diazocine-2,6-dione dihydrochloride] |
